Numbers after ± are expanded uncertainties.
Conditions: for mass density: 101.33 kPa, Liquid, Pycnometric method; for surface tension liquid-gas: Ring tensiometer

CCCCCC[N+](C)(C)CCC.O=S(=O)([N-]S(=O)(=O)C(F)(F)F)C(F)(F)F
Conditions	mass density [kg/m3]	surface tension liquid-gas [mN/m]
298.15 K	1284.6 ± 26	–
300.1 K	–	36.74 ± 5.2
302 K	–	36.58 ± 5.2
303.1 K	–	36.49 ± 5.2
303.15 K	1281.6 ± 26	–
304 K	–	36.42 ± 5.2
306 K	–	36.25 ± 5.2
308.1 K	–	36.11 ± 5.2
308.15 K	1277.5 ± 26	–
312.3 K	–	35.78 ± 5.1
313.15 K	1273.2 ± 26	–
315.2 K	–	35.55 ± 5.1
318 K	–	35.33 ± 5
318.15 K	1269.9 ± 26	–
320.6 K	–	35.14 ± 5
322.6 K	–	35.01 ± 5
323.15 K	1266 ± 26	–
328.15 K	1266 ± 26	–
333.15 K	1258.5 ± 26	–

CCn1cc[n+](C)c1.O=S(=O)([O-])C(F)(F)F [1-ethyl-3-methylimidazolium trifluoromethanesulfonate]
Conditions	surface tension liquid-gas [mN/m]
296.28 K	44.46 ± 6.2
300.79 K	44.36 ± 6.2
304.95 K	44.2 ± 6.2
308.14 K	44.07 ± 6.2
312.41 K	43.9 ± 6.2
317.15 K	43.81 ± 6.2
321.93 K	43.64 ± 6.1
328.68 K	43.37 ± 6.1
333.64 K	43.15 ± 6.1
337.82 K	42.99 ± 6
343.49 K	42.82 ± 6
347.91 K	42.62 ± 6
353.56 K	42.49 ± 6

CCCCCC[N+](CC)(CC)CC.O=S(=O)([N-]S(=O)(=O)C(F)(F)F)C(F)(F)F [triethylhexylammonium bis((trifluoromethyl)sulfonyl)imide]
Conditions	mass density [kg/m3]	surface tension liquid-gas [mN/m]
298.15 K	1279.3 ± 26	–
299.54 K	–	35.17 ± 5
302.65 K	–	34.9 ± 5
303.15 K	1275.4 ± 26	–
307.05 K	–	34.45 ± 4.9
308.15 K	1271.9 ± 26	–
313.15 K	1267.6 ± 26	–
313.73 K	–	33.88 ± 4.8
318.15 K	1264.4 ± 26	–
319.84 K	–	33.49 ± 4.8
323.15 K	1260.8 ± 26	–
324.94 K	–	32.98 ± 4.7
328.15 K	1257.4 ± 26	–
329.34 K	–	32.72 ± 4.7
333.15 K	1253 ± 26	–
335.04 K	–	32.47 ± 4.6
341.93 K	–	31.98 ± 4.6
347.11 K	–	31.45 ± 4.5

CCCCCC[n+]1ccn(C)c1.O=S(=O)([N-]S(=O)(=O)C(F)(F)F)C(F)(F)F
Conditions	surface tension liquid-gas [mN/m]
297.22 K	35.98 ± 5.1
301.22 K	35.79 ± 5
305.48 K	35.54 ± 5
309.14 K	35.35 ± 5
312.48 K	35.15 ± 4.9
316.28 K	35.03 ± 4.9
319.87 K	34.84 ± 4.9
323.57 K	34.63 ± 4.9
327.48 K	34.45 ± 4.9
331.24 K	34.26 ± 4.8
334.91 K	34.07 ± 4.8
340.92 K	33.76 ± 4.8
346.42 K	33.44 ± 4.7

CCCCCCCCCCCCCC[P+](CCCCCC)(CCCCCC)CCCCCC.N#C[N-]C#N [tetradecyl(trihexyl)phosphonium dicyanamide]
Conditions	mass density [kg/m3]	surface tension liquid-gas [mN/m]
295.06 K	–	35.22 ± 5
298.15 K	920.9 ± 25	–
299.35 K	–	34.85 ± 5
302.95 K	–	34.58 ± 4.9
303.15 K	917.3 ± 25	–
305.04 K	–	34.45 ± 4.9
308.15 K	916.3 ± 25	–
310.4 K	–	34.06 ± 4.9
313.15 K	913.1 ± 25	–
314.39 K	–	33.8 ± 4.8
318.15 K	910.1 ± 25	–
318.38 K	–	33.5 ± 4.8
322.47 K	–	33.24 ± 4.8
323.15 K	907.5 ± 25	–
326.14 K	–	32.94 ± 4.7
327.42 K	–	32.61 ± 4.7
328.15 K	905 ± 25	–
333.02 K	–	32.2 ± 4.6
333.15 K	902.4 ± 25	–
338.6 K	–	31.66 ± 4.5
343.13 K	–	31.33 ± 4.5
348.47 K	–	31.09 ± 4.4

CCCCCCCCCCCCCC[P+](CCCC)(CCCC)CCCC.CCCCCCCCCCCCc1ccccc1S(=O)(=O)[O-] [tributyl(tetradecyl)phosphonium 2-dodecylbenzenesulfonate]
Conditions	mass density [kg/m3]
298.15 K	938.4 ± 25
303.15 K	937.1 ± 25
308.15 K	933.7 ± 25
313.15 K	931.1 ± 25
318.15 K	928.4 ± 25
323.15 K	925.4 ± 25
328.15 K	922.8 ± 25
333.15 K	920.1 ± 25

CCCCn1cc[n+](C)c1.F[P-](F)(F)(F)(F)F [1-butyl-3-methylimidazolium hexafluorophosphate]
Conditions	surface tension liquid-gas [mN/m]
298.15 K	47.92 ± 6.8
301.32 K	47.71 ± 6.8
305.79 K	47.48 ± 6.7
309.6 K	47.29 ± 6.7
315.44 K	46.92 ± 6.7
319.95 K	46.55 ± 6.6
325.06 K	46.15 ± 6.6
328.68 K	46.04 ± 6.5
332.22 K	45.81 ± 6.5
335.61 K	45.41 ± 6.5

CCCCCCCCCCCCCC[P+](CCCCCC)(CCCCCC)CCCCCC.[Cl-] [trihexyl(tetradecyl)phosphonium chloride]
Conditions	mass density [kg/m3]	surface tension liquid-gas [mN/m]
297.99 K	–	33.62 ± 4.8
298.15 K	882.6 ± 25	–
302.94 K	–	33.15 ± 4.7
303.15 K	880.1 ± 25	–
307.4 K	–	32.72 ± 4.6
308.15 K	877.9 ± 25	–
312.09 K	–	32.3 ± 4.6
313.15 K	875.4 ± 25	–
315.84 K	–	32.01 ± 4.5
318.15 K	873.1 ± 25	–
319.49 K	–	31.74 ± 4.5
323.15 K	869.4 ± 25	–
323.95 K	–	31.43 ± 4.5
327.96 K	–	31.15 ± 4.4
328.15 K	866.9 ± 25	–
332.81 K	–	30.76 ± 4.4
333.15 K	864.4 ± 25	–
337.27 K	–	30.42 ± 4.3
342.09 K	–	30 ± 4.3
347.68 K	–	29.55 ± 4.2

From the NIST ThermoML archive (doi:10.1021/je7003098)
